Conditions: Crystal; for vapor or sublimation pressure: Calculated from knudsen effusion weight loss

[Np+4].[O-2].[O-2] [neptunium(IV) oxide]
Conditions | mass density [kg/m3]
295 K, 101.33 kPa, X-ray diffraction | 11140

Conditions | vapor or sublimation pressure [kPa]
2054.9 K | 3.295e-05
2056.2 K | 3.366e-05
2057.9 K | 3.51e-05
2060.1 K | 3.662e-05
2062.3 K | 3.796e-05
2064.8 K | 3.874e-05
2067.1 K | 4.025e-05
2069.1 K | 4.246e-05
2071.4 K | 4.393e-05
2073.9 K | 4.623e-05
2076.6 K | 4.712e-05
2078.6 K | 4.956e-05
2081.3 K | 5.123e-05
2083.9 K | 5.383e-05
2086.1 K | 5.495e-05
2088.4 K | 5.784e-05
2090.9 K | 5.955e-05
2093.2 K | 6.187e-05
2095.7 K | 6.433e-05
2098.6 K | 6.692e-05
2100.8 K | 6.877e-05
2103.4 K | 7.176e-05
2105.9 K | 7.462e-05
2108.1 K | 7.729e-05
2111.2 K | 8.054e-05
2113.1 K | 8.434e-05
2115.9 K | 8.748e-05
2118.1 K | 9.035e-05
2120.3 K | 9.314e-05
2122.9 K | 9.644e-05
2125.2 K | 9.94e-05
2127.9 K | 0.0001045
2130.5 K | 0.0001097
2132.7 K | 0.0001123
2135.3 K | 0.0001157
2137.4 K | 0.0001217
2139.9 K | 0.0001239
2142.7 K | 0.0001288
2145.2 K | 0.0001332
2147.5 K | 0.0001386
2149.8 K | 0.0001358
2150.2 K | 0.0001442
2151.3 K | 0.0001375
2152.2 K | 0.0001394
2152.6 K | 0.0001498
2152.8 K | 0.0001433
2154.4 K | 0.0001447
2154.9 K | 0.0001542
2155.9 K | 0.0001583
2156 K | 0.0001482
2157.3 K | 0.0001517
2158.4 K | 0.0001543
2160.3 K | 0.0001598
2161.7 K | 0.0001597
2162.9 K | 0.0001642
2164.5 K | 0.0001713
2166.2 K | 0.0001748
2167.4 K | 0.000178
2168.5 K | 0.0001787
2170.6 K | 0.0001874
2172.1 K | 0.0001888
2173.8 K | 0.0001909
2175.3 K | 0.0001994
2176.6 K | 0.0002036
2178.6 K | 0.0002068
2179.8 K | 0.0002135
2181 K | 0.0002199
2183.2 K | 0.0002228
2184.5 K | 0.0002278
2186.2 K | 0.0002338
2187.7 K | 0.0002364
2189.2 K | 0.0002417
2191.4 K | 0.0002525
2193.1 K | 0.0002543
2194.3 K | 0.0002622
2196 K | 0.0002656
2197.8 K | 0.0002726
2199.7 K | 0.0002771
2200.8 K | 0.0002867
2202.4 K | 0.0002946
2204.7 K | 0.0002992
2206.6 K | 0.0003045
2207.4 K | 0.0003104
2209.3 K | 0.0003162
2211.2 K | 0.0003286
2212.7 K | 0.0003354
2214.4 K | 0.0003408
2216.4 K | 0.0003502
2218.1 K | 0.0003597
2218.9 K | 0.0003644
2220.7 K | 0.0003741
2222.9 K | 0.0003833
2224.6 K | 0.0003931
2225.9 K | 0.0004013
2227.7 K | 0.000407
2229.2 K | 0.0004206
2231 K | 0.0004254
2232.9 K | 0.0004344
2233.8 K | 0.0004466
2235.8 K | 0.0004515
2237.8 K | 0.0004628
2239.3 K | 0.0004711
2240.7 K | 0.0004792
2242.2 K | 0.0004974
2243.7 K | 0.0005095
2245.8 K | 0.0005148
2247.3 K | 0.0005247
2249.2 K | 0.00054
2250.6 K | 0.0005507
2252.1 K | 0.0005593
2254.2 K | 0.0005708
2255.6 K | 0.0005856
2257.4 K | 0.0005944
2258.3 K | 0.0006052
2258.7 K | 0.0006098
2259.2 K | 0.0006132

Source: the NIST ThermoML archive (doi:10.1016/j.jct.2016.07.040)
